PubChem BioAssay AID1963840 (Molecular Pharmacology Branch, DTP, NCI, 2024)
pIC50: −log10 of the molar value.

System: 695427-040-R-J1-PDC complex spheroid viability
Assay: Anticancer human tumor 695427-040-R-J1-PDC patient-derived colon adenocarcinoma cell line growth inhibition [POLQ]
Conditions: for pIC50: curve of first compound; for viability, T/C: stronger effect = lower value
Outline: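 Complex spheroid viability model combining PDC tumour cells with endothelial (HUVEC) and MSC stromal cells. Novobiocin, ART-558 or RP6685 were tested singly and in combination with standard and investigational anticancer drugs. Each was titrated in half-log steps from near clinical Cmax, or from 10 microM where Cmax was unknown.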

[1] = second compound 0.0316 µM, first compound 0.0316 µM
[2] = second compound 0.0316 µM, first compound 0.1 µM
[3] = second compound 0.0316 µM, first compound 0.316 µM
[4] = second compound 0.0316 µM, first compound 1 µM
[5] = second compound 0.0316 µM, first compound 3.16 µM
[6] = second compound 0.0316 µM, first compound 10 µM
[7] = second compound 0.1 µM, first compound 0.0316 µM
[8] = second compound 0.1 µM, first compound 0.1 µM
[9] = second compound 0.1 µM, first compound 0.316 µM
[10] = second compound 0.1 µM, first compound 1 µM
[11] = second compound 0.1 µM, first compound 3.16 µM
[12] = second compound 0.1 µM, first compound 10 µM
[13] = second compound 0.316 µM, first compound 0.0316 µM
[14] = second compound 0.316 µM, first compound 0.1 µM
[15] = second compound 0.316 µM, first compound 0.316 µM
[16] = second compound 0.316 µM, first compound 1 µM
[17] = second compound 0.316 µM, first compound 3.16 µM
[18] = second compound 0.316 µM, first compound 10 µM
[19] = second compound 1 µM, first compound 0.0316 µM
[20] = second compound 1 µM, first compound 0.1 µM
[21] = second compound 1 µM, first compound 0.316 µM
[22] = second compound 1 µM, first compound 1 µM
[23] = second compound 1 µM, first compound 3.16 µM
[24] = second compound 1 µM, first compound 10 µM
[25] = second compound 3.16 µM, first compound 0.0316 µM
[26] = second compound 3.16 µM, first compound 0.1 µM
[27] = second compound 3.16 µM, first compound 0.316 µM
[28] = second compound 3.16 µM, first compound 1 µM
[29] = second compound 3.16 µM, first compound 3.16 µM
[30] = second compound 3.16 µM, first compound 10 µM
[31] = second compound 10 µM, first compound 0.0316 µM
[32] = second compound 10 µM, first compound 0.1 µM
[33] = second compound 10 µM, first compound 0.316 µM
[34] = second compound 10 µM, first compound 1 µM
[35] = second compound 10 µM, first compound 3.16 µM
[36] = second compound 10 µM, first compound 10 µM
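Further: spheroids exposed to compounds for seven days.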
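Wherever viability, T/C is given: 100% = DMSO vehicle control viability.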

CC1COCCN1c1cc(C2(O)CC3CCC(C2)O3)c2cnn(-c3ccn[nH]3)c2n1 (stereo not given) + Cc1cccc(N(C)C(=O)C2C(O)CCN2c2nc(C)cc(C(F)(F)F)c2C#N)c1
pIC50 (second compound 0.0316 µM): 5.21
pIC50 (second compound 0.1 µM): 5.13
pIC50 (second compound 0.316 µM): 5.21
pIC50 (second compound 1 µM): 5.18
pIC50 (second compound 3.16 µM): 5.33
pIC50 (second compound 10 µM): 5.55
viability, T/C [1]: 102%
viability, T/C [2]: 84.5%
viability, T/C [3]: 76.9%
viability, T/C [4]: 66%
viability, T/C [5]: 52.5%
viability, T/C [6]: 47.3%
viability, T/C [7]: 102%
viability, T/C [8]: 91.3%
viability, T/C [9]: 85%
viability, T/C [10]: 70.8%
viability, T/C [11]: 55.9%
viability, T/C [12]: 47.9%
viability, T/C [13]: 109%
viability, T/C [14]: 88.1%
viability, T/C [15]: 80.6%
viability, T/C [16]: 67.1%
viability, T/C [17]: 58.4%
viability, T/C [18]: 44%
viability, T/C [19]: 100%
viability, T/C [20]: 91.4%
viability, T/C [21]: 82.6%
viability, T/C [22]: 66.6%
viability, T/C [23]: 56.8%
viability, T/C [24]: 46.3%
viability, T/C [25]: 96%
viability, T/C [26]: 92.6%
viability, T/C [27]: 73.8%
viability, T/C [28]: 65.6%
viability, T/C [29]: 53.8%
viability, T/C [30]: 43.5%
viability, T/C [31]: 93.3%
viability, T/C [32]: 88.6%
viability, T/C [33]: 70.3%
viability, T/C [34]: 56.1%
viability, T/C [35]: 51.5%
viability, T/C [36]: 45.6%

O=C(Nc1ccc(O)c(NS(=O)(=O)c2ccc(F)cc2)c1)c1ccc(-c2ccccc2)cc1 + Cc1cccc(N(C)C(=O)C2C(O)CCN2c2nc(C)cc(C(F)(F)F)c2C#N)c1
pIC50 (second compound 0.0316 µM): < 5.00
pIC50 (second compound 0.1 µM): < 5.00
pIC50 (second compound 0.316 µM): < 5.00
pIC50 (second compound 1 µM): < 5.00
pIC50 (second compound 3.16 µM): < 5.00
pIC50 (second compound 10 µM): < 5.00
viability, T/C [1]: 111%
viability, T/C [2]: 107%
viability, T/C [3]: 92.2%
viability, T/C [4]: 103%
viability, T/C [5]: 108%
viability, T/C [6]: 98.4%
viability, T/C [7]: 105%
viability, T/C [8]: 101%
viability, T/C [9]: 95.9%
viability, T/C [10]: 99.5%
viability, T/C [11]: 112%
viability, T/C [12]: 88.2%
viability, T/C [13]: 104%
viability, T/C [14]: 103%
viability, T/C [15]: 97.4%
viability, T/C [16]: 101%
viability, T/C [17]: 111%
viability, T/C [18]: 86.9%
viability, T/C [19]: 109%
viability, T/C [20]: 95.9%
viability, T/C [21]: 101%
viability, T/C [22]: 94.4%
viability, T/C [23]: 115%
viability, T/C [24]: 92.3%
viability, T/C [25]: 97.6%
viability, T/C [26]: 101%
viability, T/C [27]: 93.5%
viability, T/C [28]: 103%
viability, T/C [29]: 103%
viability, T/C [30]: 93.6%
viability, T/C [31]: 103%
viability, T/C [32]: 92.2%
viability, T/C [33]: 96.1%
viability, T/C [34]: 94%
viability, T/C [35]: 102%
viability, T/C [36]: 82.6%

COc1cc(C2c3cc4c(cc3C(OC3OC5COC(C)OC5C(O)C3O)C3COC(=O)C23)OCO4)cc(OC)c1O (stereo not given) + Nc1ccc(C#CCN(C(=O)Cc2ncc(C(F)(F)F)cc2C(F)(F)F)c2ccc(F)cc2)nn1
pIC50 (second compound 0.0316 µM): < 5.00
pIC50 (second compound 0.1 µM): < 5.00
pIC50 (second compound 0.316 µM): < 5.00
pIC50 (second compound 1 µM): < 5.00
pIC50 (second compound 3.16 µM): < 5.00
pIC50 (second compound 10 µM): < 5.00
viability, T/C [1]: 104%
viability, T/C [2]: 97.9%
viability, T/C [3]: 98%
viability, T/C [4]: 97.8%
viability, T/C [5]: 95.2%
viability, T/C [6]: 87.4%
viability, T/C [7]: 99%
viability, T/C [8]: 97.2%
viability, T/C [9]: 100%
viability, T/C [10]: 104%
viability, T/C [11]: 102%
viability, T/C [12]: 89.4%
viability, T/C [13]: 98.4%
viability, T/C [14]: 90.5%
viability, T/C [15]: 98.3%
viability, T/C [16]: 97.6%
viability, T/C [17]: 113%
viability, T/C [18]: 91.3%
viability, T/C [19]: 101%
viability, T/C [20]: 97.5%
viability, T/C [21]: 105%
viability, T/C [22]: 97.5%
viability, T/C [23]: 106%
viability, T/C [24]: 73.5%
viability, T/C [25]: 96.2%
viability, T/C [26]: 94.3%
viability, T/C [27]: 98.5%
viability, T/C [28]: 99.2%
viability, T/C [29]: 101%
viability, T/C [30]: 81.5%
viability, T/C [31]: 92.7%
viability, T/C [32]: 89%
viability, T/C [33]: 88.8%
viability, T/C [34]: 87.8%
viability, T/C [35]: 85.9%
viability, T/C [36]: 84.9%

COc1cccc2c1C(=O)c1c(O)c3c(c(O)c1C2=O)CC(O)(C(=O)CO)CC3OC1CC(N)C(O)C(C)O1 (stereo not given) + Nc1ccc(C#CCN(C(=O)Cc2ncc(C(F)(F)F)cc2C(F)(F)F)c2ccc(F)cc2)nn1
pIC50 (second compound 0.0316 µM): < 5.00
pIC50 (second compound 0.1 µM): < 5.00
pIC50 (second compound 0.316 µM): < 5.00
pIC50 (second compound 1 µM): < 5.00
pIC50 (second compound 3.16 µM): < 5.00
pIC50 (second compound 10 µM): 5.47
viability, T/C [1]: 101%
viability, T/C [2]: 90.9%
viability, T/C [3]: 97.3%
viability, T/C [4]: 78.2%
viability, T/C [5]: 79.6%
viability, T/C [6]: 71%
viability, T/C [7]: 113%
viability, T/C [8]: 95%
viability, T/C [9]: 98.9%
viability, T/C [10]: 80%
viability, T/C [11]: 84.5%
viability, T/C [12]: 64.6%
viability, T/C [13]: 99.6%
viability, T/C [14]: 99.8%
viability, T/C [15]: 94.4%
viability, T/C [16]: 83.7%
viability, T/C [17]: 81.5%
viability, T/C [18]: 68.3%
viability, T/C [19]: 106%
viability, T/C [20]: 89.5%
viability, T/C [21]: 95.7%
viability, T/C [22]: 81.8%
viability, T/C [23]: 79.6%
viability, T/C [24]: 58.6%
viability, T/C [25]: 96.2%
viability, T/C [26]: 92%
viability, T/C [27]: 90.9%
viability, T/C [28]: 77.8%
viability, T/C [29]: 76.9%
viability, T/C [30]: 51.6%
viability, T/C [31]: 95.8%
viability, T/C [32]: 84.3%
viability, T/C [33]: 86.6%
viability, T/C [34]: 68.7%
viability, T/C [35]: 50.8%
viability, T/C [36]: 35.3%

O=c1[nH]cc(F)c(=O)[nH]1 + Nc1ccc(C#CCN(C(=O)Cc2ncc(C(F)(F)F)cc2C(F)(F)F)c2ccc(F)cc2)nn1
pIC50 (second compound 0.0316 µM): < 5.00
pIC50 (second compound 0.1 µM): < 5.00
pIC50 (second compound 0.316 µM): < 5.00
pIC50 (second compound 1 µM): < 5.00
pIC50 (second compound 3.16 µM): < 5.00
pIC50 (second compound 10 µM): < 5.00
viability, T/C [1]: 111%
viability, T/C [2]: 111%
viability, T/C [3]: 98.8%
viability, T/C [4]: 102%
viability, T/C [5]: 112%
viability, T/C [6]: 106%
viability, T/C [7]: 111%
viability, T/C [8]: 106%
viability, T/C [9]: 95.1%
viability, T/C [10]: 106%
viability, T/C [11]: 111%
viability, T/C [12]: 100%
viability, T/C [13]: 110%
viability, T/C [14]: 105%
viability, T/C [15]: 99.5%
viability, T/C [16]: 112%
viability, T/C [17]: 106%
viability, T/C [18]: 90.9%
viability, T/C [19]: 104%
viability, T/C [20]: 98.8%
viability, T/C [21]: 90.5%
viability, T/C [22]: 107%
viability, T/C [23]: 107%
viability, T/C [24]: 99.1%
viability, T/C [25]: 98.7%
viability, T/C [26]: 107%
viability, T/C [27]: 97.6%
viability, T/C [28]: 93.2%
viability, T/C [29]: 103%
viability, T/C [30]: 108%
viability, T/C [31]: 110%
viability, T/C [32]: 103%
viability, T/C [33]: 98%
viability, T/C [34]: 97.5%
viability, T/C [35]: 96.7%
viability, T/C [36]: 101%
